Data from paper PMC12057363 (Antimicrobial Agents and Chemotherapy, 2025).
Several values for one entry are separate records, joined by “and”; a condition that tells them apart may be missing. Identical values can stand only once. Like-named read-outs stand apart in the source and are kept apart here.

Legend:
YFV-17D [1] = experiment: microbe, parasite or virus in culture; type: cell-based; conditions: Yellow fever virus; for EC90: read-out: Anti-YFV-17D activity Huh-7 EC90
YFV-17D [2] = experiment: microbe, parasite or virus in culture; type: cell-based; conditions: Yellow fever virus, Macrophage, 72 h; for EC50: read-out: Anti-YFV-17D activity MDM EC50; for EC90: read-out: Anti-YFV-17D activity MDM EC90
YFV-17D [3] = experiment: microbe, parasite or virus in culture; type: cell-based; conditions: Yellow fever virus, Huh-7, 72 h; for EC50: read-out: Anti-YFV-17D activity 3D spheroids EC50; for EC90: read-out: Anti-YFV-17D activity 3D spheroids EC90
YFV-17D [4] = experiment: microbe, parasite or virus in culture; type: cell-based; conditions: Yellow fever virus, Huh-7, 72 h; for EC50: read-out: Anti-YFV-17D EC50 (reduction in infectious virus); for EC90: read-out: Anti-YFV-17D EC90 (reduction in infectious virus)
YFV-DakH1279 = experiment: microbe, parasite or virus in culture; type: cell-based, Yellow fever virus; conditions: for EC50 / EC90: Yellow fever virus, Huh-7, 48 h; for EC50: read-out: Anti-YFV-DakH1279 EC50 (reduction in infectious virus); for EC90: read-out: Anti-YFV-DakH1279 EC90 (reduction in infectious virus)
Huh-7 cells = experiment: cells; conditions: Homo sapiens, Huh-7, 336 h
YFV-17DD [5] = conditions: mouse, in vivo; cited from earlier work
in vitro [6] = conditions: African green monkey
cell lines = conditions: cited from earlier work
[7] = tested on: clinical YFV isolate (WT306); conditions: mouse, in vivo, 10 mg/kg
YFV-17DD [8] = conditions: mouse, in vivo
dengue virus (DENV) = conditions: read-out: EC50 against dengue virus; cited from earlier work
[9] = tested on: Japanese encephalitis virus (JEV); conditions: read-out: EC50 against Japanese encephalitis virus; cited from earlier work
Zika virus (ZIKV) = conditions: read-out: EC50 against Zika virus; cited from earlier work
HCV = conditions: read-out: EC50 against HCV; cited from earlier work
[10] = rat, in vivo; cited from earlier work
YFV [11] = conditions: cited from earlier work
YFV [12] = conditions: mouse, in vivo; cited from earlier work
in vitro [13] = conditions: human
in vitro [14] = conditions: human; remark: listed apart in the source
in vitro [15] = conditions: human; remark: listed apart in the source
[16] = Huh-7, 72 h, read-out: Anti-YFV-17D activity Huh-7 EC50
[17] = read-out: Mitotoxicity (Huh-7) IC50 MtDNA
[18] = read-out: Mitotoxicity (Huh-7) IC50 nDNA

| Structure (SMILES) | EC50 (YFV-17D [1]; [16]) | EC90 (YFV-17D [1]; Huh-7, 72 h) | EC50 (YFV-17D [2]) | EC90 (YFV-17D [2]) | EC50 (YFV-17D [3]) | EC90 (YFV-17D [3]) | EC50 (YFV-17D [4]) | EC90 (YFV-17D [4]) | Average infectious YFV yield, YFV-DakH1279 (YFV-DakH1279) | EC50 (YFV-DakH1279) | EC90 (YFV-DakH1279) | IC50 (Huh-7 cells; [17]) | IC50 (Huh-7 cells; [18]) | CC50 (in vitro [6]) | cytotoxicity CC50 (cell lines) | other results |
| --- | --- | --- | --- | --- | --- | --- | --- | --- | --- | --- | --- | --- | --- | --- | --- | --- |
| CC(C)OC(=O)[C@H](C)N[P@](=O)(OC[C@H]1O[C@@H](n2ccc(=O)[nH]c2=O)[C@@](F)(Br)[C@@H]1O)Oc1ccccc1 [Compound 2-FBU] | 900 ± 800 nM | 8100 ± 3500 nM | 200 ± 100 nM | 3000 ± 1600 nM | 2200 ± 200 nM | 7700 ± 300 nM | 1200 ± 500 nM | 8600 ± 3100 nM | 4.0x10^4 ± 6.1x10^3 FFU/mL and 2.4x10^4 ± 9.8x10^3 FFU/mL and 3.3x10^3 ± 2.4x10^3 FFU/mL and 2.8x10^2 ± 1.7x10^2 FFU/mL | 1700 ± 1100 nM | 3500 ± 2300 nM | 40900 nM | > 50000 nM | > 100000 nM | 68.9–>100 | log reduction in YFV genome copies in the liver tissue (YFV-17DD [5]): 0.7 log; percent reduction in YFV genome copies in the liver tissue (YFV-17DD [5]): ~ 80% |
| C[C@@]1(O)[C@H](O)[C@@H](CO)O[C@H]1n1cc(F)c2c(N)ncnc21 [DFA, 7-deaza-7-fluoro-2′-C-methyladenosine] | 900 ± 600 nM | 3400 ± 500 nM | 500 ± 400 nM | 1000 ± 600 nM | 5500 ± 1300 nM | 12600 ± 1900 nM | 800 ± 400 nM | 5600 ± 2600 nM |  | 2400 ± 1900 nM | 5000 ± 3100 nM | > 50000 nM | > 50000 nM | 92400 ± 8100 nM | >100–>200 | EC50 (YFV-17D [1]; Huh-7, read-out: EC50 against YFV-17D in vitro (summary range)): 900 to 5500 nM; ALT levels [7]: markedly reduced; YFV-mediated liver pathology (histology) [7]: significantly reduced; clinical severity (clinical disease score) [7]: modest but significant decrease; leukocytosis (total circulating leukocytes) [7]: significantly reduced; total portion of granulocytes in the blood [7]: significantly reduced; virus replication in the liver, infectious virions (plaque assay) [7]: significantly reduced; virus replication in the liver, total genome copy numbers [7]: significantly reduced; body weight (YFV-17DD [8]): no significant changes; inflammatory cell infiltration, infiltrate score (YFV-17DD [8]): ~ 1; total white blood cell numbers (YFV-17DD [8]): no significant changes; ALT levels (YFV-17DD [8]; 10 mg/kg): significantly reduced; YFV-17DD replication in the livers (qRT-PCR) (YFV-17DD [8]; 10 mg/kg): significantly reduced; liver pathology by histopathological analysis (YFV-17DD [8]; 10 mg/kg): reduced liver pathology; overall health status (YFV-17DD [8]; 10 mg/kg): no notable impact; EC50 (dengue virus (DENV)): 500 to 1000 nM; EC50 [9]: 900 nM; EC50 (Zika virus (ZIKV)): 3700 nM; EC50 (HCV): 70 to 900 nM; pharmacokinetic profile [10]: favorable pharmacokinetic profile |
| Nc1ncnc2c([C@@H]3N[C@H](CO)[C@@H](O)[C@H]3O)c[nH]c12 [Galidesivir] |  |  |  |  |  |  |  |  |  |  |  |  |  |  |  | activity against YFV in vitro (YFV [11]): active |
| CC(C)OC(=O)[C@H](C)N[P@](=O)(OC[C@H]1O[C@@H](n2ccc(=O)[nH]c2=O)[C@](C)(F)[C@@H]1O)Oc1ccccc1 [Sofosbuvir] | 600 ± 600 nM | 3000 ± 2500 nM | 1000 ± 700 nM | 2400 ± 1500 nM |  |  | 300 ± 100 nM | 1200 ± 100 nM | 2.7x10^4 ± 1.1x10^4 FFU/mL and 1.4x10^4 ± 1.2x10^4 FFU/mL and 2.2x10^3 ± 1.2x10^3 FFU/mL and 1.8x10^2 ± 1.2x10^2 FFU/mL | 1600 ± 1300 nM | 3100 ± 2400 nM | > 50000 nM | > 50000 nM | > 100000 nM |  | efficacy against YFV in mice (YFV [12]): little efficacy; CC50 (in vitro [13]): > 100000 nM; CC50 (in vitro [14]): 85600 ± 11600 nM; CC50 (in vitro [15]): > 100000 nM |
